Assay results taken from the CheMixHub viscosity set.

Assay: xn = mol fraction of the nth substance listed

O=C1CCCCC1 + CC(C)CC(C)(C)C
viscosity [mPa·s]
Conditions | 293.15 K | 298.15 K | 303.15 K | 308.15 K | 313.15 K
101 kPa, x1 = 0.0911 | 0.5562 | 0.5245 | 0.497 | 0.4702 | 0.4465
101 kPa, x1 = 0.127 | – | 0.551 | – | – | –
101 kPa, x1 = 0.1761 | 0.6094 | 0.5717 | 0.5392 | 0.5101 | 0.4831
101 kPa, x1 = 0.1855 | – | 0.575 | – | – | –
101 kPa, x1 = 0.3071 | – | 0.643 | – | – | –
101 kPa, x1 = 0.3304 | 0.7148 | 0.6685 | 0.6303 | 0.5925 | 0.5593
101 kPa, x1 = 0.4005 | 0.7809 | 0.729 | 0.6869 | 0.643 | 0.6047
101 kPa, x1 = 0.4354 | – | 0.741 | – | – | –
101 kPa, x1 = 0.5171 | – | 0.836 | – | – | –
101 kPa, x1 = 0.5288 | 0.9379 | 0.8709 | 0.8135 | 0.7598 | 0.7134
101 kPa, x1 = 0.5877 | 1.037 | 0.9596 | 0.8935 | 0.8326 | 0.7791
101 kPa, x1 = 0.6149 | – | 0.969 | – | – | –
101 kPa, x1 = 0.6961 | 1.231 | 1.132 | 1.046 | 0.969 | 0.9139
101 kPa, x1 = 0.7054 | – | 1.114 | – | – | –
101 kPa, x1 = 0.7937 | 1.479 | 1.353 | 1.248 | 1.152 | 1.07
101 kPa, x1 = 0.7982 | – | 1.317 | – | – | –
101 kPa, x1 = 0.8836 | – | 1.526 | – | – | –
101 kPa, x1 = 0.9232 | 1.947 | 1.771 | 1.628 | 1.49 | 1.368
101.33 kPa, x1 = 0.103 | – | 0.514 | 0.485 | 0.458 | –
101.33 kPa, x1 = 0.2023 | – | 0.563 | 0.53 | 0.501 | –
101.33 kPa, x1 = 0.3 | – | 0.626 | 0.589 | 0.556 | –
101.33 kPa, x1 = 0.4044 | – | 0.717 | 0.667 | 0.623 | –
101.33 kPa, x1 = 0.5041 | – | 0.808 | 0.751 | 0.702 | –
101.33 kPa, x1 = 0.6035 | – | 0.932 | 0.865 | 0.805 | –
101.33 kPa, x1 = 0.7029 | – | 1.104 | 1.016 | 0.953 | –
101.33 kPa, x1 = 0.8014 | – | 1.309 | 1.199 | 1.106 | –
101.33 kPa, x1 = 0.9008 | – | 1.58 | 1.44 | 1.322 | –

CC(=O)CC(C)C + CC(C)CCO
viscosity [mPa·s]
Conditions | x1 = 0.1006 | x1 = 0.2027 | x1 = 0.3201 | x1 = 0.3948 | x1 = 0.5073 | x1 = 0.6072 | x1 = 0.7013 | x1 = 0.8032 | x1 = 0.8927
298.15 K, 101 kPa | 2.58 | 1.89 | 1.4 | 1.2 | 0.965 | 0.839 | 0.728 | 0.648 | 0.595
298.15 K, 101.3 kPa | 2.58 | 1.89 | 1.4 | 1.2 | 0.965 | 0.839 | 0.728 | 0.648 | 0.595
303.15 K, 101.3 kPa | 2.26 | 1.69 | 1.28 | 1.1 | 0.903 | 0.781 | 0.682 | 0.617 | 0.566
308.15 K, 101.3 kPa | 1.99 | 1.51 | 1.17 | 1.01 | 0.837 | 0.728 | 0.64 | 0.579 | 0.534
313.15 K, 101.3 kPa | 1.75 | 1.36 | 1.05 | 0.926 | 0.766 | 0.681 | 0.602 | 0.545 | 0.506

CC(=O)CC(C)C + CC(C)CO
viscosity [mPa·s], 101 kPa
Conditions | 298.15 K | 303.15 K | 308.15 K
x2 = 0.3997 | – | 0.703 | 0.656
x2 = 0.4937 | 0.851 | 0.786 | 0.73

O=C1CCCCC1 + CC(C)CO
298.15 K, 101 kPa
Conditions | viscosity [mPa·s]
x1 = 0.1012 | 2.58
x1 = 0.2016 | 2.15
x1 = 0.299 | 1.9
x1 = 0.3994 | 1.77
x1 = 0.5008 | 1.72
x1 = 0.5978 | 1.7
x1 = 0.6982 | 1.69
x1 = 0.7981 | 1.71
x1 = 0.8985 | 1.77

CC(C)CC(=O)CC(C)C + CC(C)O
viscosity [mPa·s], 100 kPa
Conditions | x1 = 0.0818 | x1 = 0.1619 | x1 = 0.2451 | x1 = 0.3518 | x1 = 0.4413 | x1 = 0.5637 | x1 = 0.6549 | x1 = 0.7367 | x1 = 0.8528 | x1 = 0.9379
293.15 K | 1.93 | 1.52 | 1.19 | 0.92 | 0.76 | 0.65 | 0.63 | 0.66 | 0.77 | 0.87
298.15 K | 1.73 | 1.41 | 1.14 | 0.88 | 0.72 | 0.62 | 0.61 | 0.64 | 0.74 | 0.83
303.15 K | 1.51 | 1.26 | 1.05 | 0.83 | 0.7 | 0.6 | 0.59 | 0.62 | 0.72 | 0.8
308.15 K | 1.32 | 1.12 | 0.95 | 0.77 | 0.66 | 0.58 | 0.57 | 0.6 | 0.68 | 0.76
313.15 K | 1.18 | 1.01 | 0.87 | 0.72 | 0.63 | 0.56 | 0.55 | 0.57 | 0.64 | 0.71
318.15 K | 1.05 | 0.92 | 0.8 | 0.67 | 0.6 | 0.54 | 0.53 | 0.55 | 0.61 | 0.67
323.15 K | 0.93 | 0.82 | 0.72 | 0.63 | 0.57 | 0.52 | 0.51 | 0.53 | 0.58 | 0.63

CC(C)CC(C)(C)C + CC(C)O
viscosity [mPa·s], 101 kPa
Conditions | 298.15 K | 308.15 K
x1 = 0.0513 | 1.722 | –
x1 = 0.0555 | 1.703 | –
x1 = 0.1045 | 1.47 | –
x1 = 0.1511 | 1.3 | –
x1 = 0.2103 | 1.123 | –
x1 = 0.2394 | 1.066 | –
x1 = 0.2822 | 0.947 | –
x1 = 0.4108 | 0.751 | –
x1 = 0.4264 | 0.734 | –
x1 = 0.5195 | 0.64 | –
x1 = 0.5751 | 0.599 | –
x1 = 0.6545 | 0.562 | –
x1 = 0.6978 | 0.54 | –
x1 = 0.8094 | 0.505 | –
x1 = 0.9505 | 0.49 | –
x2 = 0.05 | 0.482 | 0.432
x2 = 0.1 | 0.486 | 0.434
x2 = 0.1501 | 0.493 | 0.44
x2 = 0.2 | 0.503 | 0.447
x2 = 0.25 | 0.515 | 0.457
x2 = 0.3 | 0.53 | 0.468
x2 = 0.35 | 0.55 | 0.483
x2 = 0.4 | 0.576 | 0.501
x2 = 0.45 | 0.608 | 0.524
x2 = 0.5 | 0.646 | 0.552
x2 = 0.55 | 0.694 | 0.586
x2 = 0.6 | 0.751 | 0.628
x2 = 0.65 | 0.819 | 0.677
x2 = 0.7 | 0.901 | 0.736
x2 = 0.75 | 1.003 | 0.806
x2 = 0.8 | 1.122 | 0.898
x2 = 0.85 | 1.277 | 1.006
x2 = 0.9 | 1.407 | 1.145
x2 = 0.95 | 1.707 | 1.31

CCCCCC(=O)O + CC(C)[C@@H]1CC[C@@H](C)C[C@H]1O
Conditions | viscosity [mPa·s]
298 K, 101 kPa, x2 = 0.333 | 8.9

CC(=O)CC(C)C + CCC(C)(C)O
viscosity [mPa·s]
Conditions | 298.15 K | 303.15 K | 308.15 K | 313.15 K
101 kPa, x1 = 0.1 | 2.52 | – | – | –
101 kPa, x1 = 0.2 | 1.823 | – | – | –
101 kPa, x1 = 0.3 | 1.376 | – | – | –
101 kPa, x1 = 0.4 | 1.1 | – | – | –
101 kPa, x1 = 0.5 | 0.928 | – | – | –
101 kPa, x1 = 0.6 | 0.815 | – | – | –
101 kPa, x1 = 0.7 | 0.727 | – | – | –
101 kPa, x1 = 0.8 | 0.65 | – | – | –
101 kPa, x1 = 0.9 | 0.584 | – | – | –
101.3 kPa, x1 = 0.1053 | 2.5 | 2.11 | 1.79 | 1.52
101.3 kPa, x1 = 0.1952 | 1.77 | 1.52 | 1.32 | 1.15
101.3 kPa, x1 = 0.305 | 1.37 | 1.21 | 1.07 | 0.951
101.3 kPa, x1 = 0.4324 | 1.05 | 0.946 | 0.856 | 0.776
101.3 kPa, x1 = 0.495 | 0.95 | 0.866 | 0.786 | 0.721
101.3 kPa, x1 = 0.6 | 0.813 | 0.747 | 0.69 | 0.64
101.3 kPa, x1 = 0.7004 | 0.719 | 0.671 | 0.627 | 0.587
101.3 kPa, x1 = 0.7937 | 0.641 | 0.603 | 0.569 | 0.538
101.3 kPa, x1 = 0.9001 | 0.589 | 0.558 | 0.529 | 0.503

O=C1CCCCC1 + CCC(C)=O
298.15 K, 101 kPa
Conditions | viscosity [mPa·s]
x1 = 0.0755 | 0.45
x1 = 0.1552 | 0.523
x1 = 0.2395 | 0.576
x1 = 0.3288 | 0.655
x1 = 0.4235 | 0.739
x1 = 0.5243 | 0.868
x1 = 0.6316 | 1.03
x1 = 0.7461 | 1.258
x1 = 0.8686 | 1.587
